The values that follow come from patent US12139498B1, “Positive allosteric modulators of the muscarinic acetylcholine receptor M4” (Vanderbilt University, priority 2023, dated 2024).

For this assay, the target named is T1, Human M4 (Homo sapiens, UniProt P08173).
T1 sequence (P08173 1-479): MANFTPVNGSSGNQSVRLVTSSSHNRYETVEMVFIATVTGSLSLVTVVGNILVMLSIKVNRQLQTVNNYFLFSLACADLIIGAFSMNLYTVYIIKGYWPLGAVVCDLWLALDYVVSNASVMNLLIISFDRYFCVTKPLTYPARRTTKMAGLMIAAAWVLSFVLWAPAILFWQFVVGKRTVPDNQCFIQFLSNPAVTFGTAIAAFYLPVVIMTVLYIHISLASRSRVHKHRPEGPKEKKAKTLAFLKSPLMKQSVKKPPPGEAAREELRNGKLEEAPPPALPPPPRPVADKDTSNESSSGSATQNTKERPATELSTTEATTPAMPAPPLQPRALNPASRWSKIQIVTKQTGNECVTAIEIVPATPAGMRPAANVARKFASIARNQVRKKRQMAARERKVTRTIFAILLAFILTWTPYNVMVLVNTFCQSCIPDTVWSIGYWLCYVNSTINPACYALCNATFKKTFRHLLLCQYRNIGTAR
The assay can be described thus: M4 cell-based functional assay (calcium mobilization). Further details: expressed in transfected cells. The following applies: for Emax at 30 µM: % ACh maximum at 30 μM; for EC50: CHO-K1 hM4-Gqi5 cells, calcium flux, increase in EC20 acetylcholine response. The procedure:
Human (h) and rat (r) M4 CDNAs, along with the chimeric G protein Gqi5, were transfected into Chinese hamster ovary (CHO-K1) cells purchased from the American Type Culture Collection using Lipofectamine2000. The transfected cells were subjected to selection antibiotic treatment to generate stable cell lines; G418 sulfate (1 mg/ml) for selecting M4 expressing cells and Hygromycin B (500 μg/mL) for selecting Gqi5 expressing cells. The resulting polyclones were further screened to obtain monoclones of hM4-Gqi5 and rM4-Gqi5 for compound screening assay. Stable monoclone cells were maintained in Ham's F-12 medium containing 10% heat-inactivated fetal bovine serum (FBS), 1× Antibiotic/Antimycotic, 20 mM HEPES, 500 μg/mL G418 sulfate, and 200 μg/mL Hygromycin B in 37° C. humidified incubators in the presence of 5% CO2.
The high throughput assay was employed to measure receptor-induced mobilization of intracellular calcium to determine compound activity. Test compound was added to cells expressing the muscarinic receptors that were loaded with calcium sensitive fluorescent dye. After a ˜2.5 minute incubation period, a submaximal (EC20) concentration of acetylcholine was added, and the response measured. This kinetic assay allows for simultaneous screening and potency determination of multiple pharmacological modes of action including agonist and potentiator activity. CHO-K1 cells stably expressing muscarinic receptors were plated in growth medium lacking G418 and hygromycin at 15,000 cells/20 μL/well in Greiner 384-well black-walled, tissue culture (TC)-treated, clear-bottom plates (Greiner Bio-One). Cells were incubated overnight at 37° C. and 5% CO2. The next day, calcium assay buffer (Hank's balanced salt solution (HBSS), 20 mM HEPES, 2.5 mM Probenecid, 4.16 mM sodium bicarbonate (Sigma-Aldrich, St. Louis, MO)) was prepared to dilute compounds, agonists, and Fluo-4-acetomethoxyester (Fluo-4-AM), fluorescent calcium indicator dye. Compounds were serially diluted 1:3 into 10 point concentration response curves in DMSO using the Bravo Liquid Handler (Agilent, Santa Clara, CA), transferred to a 384 well daughter plates using an Echo acoustic liquid handler (Beckman Coulter, Indianapolis, Indiana), and diluted in assay Buffer to a 2× final concentration. The agonist plates were prepared using acetylcholine (ACh, Sigma-Aldrich, St. Louis, MO) concentrations for the EC20 and ECMAX responses by diluting in assay buffer to a 5× final concentration. The 2× dye solution (2.3 μM) was prepared by mixing a 2.3 mM Fluo-4-AM stock in DMSO with 10% (w/v) pluronic acid F-127 in a 1:1 ratio in assay buffer. Using a microplate washer (BioTek, Winooski, VT), cells were washed with assay buffer for 3 times to remove medium. After the final wash, 20 μL of assay buffer remained in the cell plates. Immediately, 20 μL of the 2× dye solution (final 1.15 μM) was added to each well of the cell plate using a Multidrop Combi dispenser (Thermo Fisher, Waltham, MA). After cells were incubated with the dye solutions for 45 min at 37° C. in the presence of 5% CO2, the dye solutions were removed and replaced with assay buffer using a microplate washer, leaving 20 μL of assay buffer in the cell plate.
The prepared compound, agonist, and cell plates were placed inside the Functional Drug Screening System uCell (FDSS uCell, Hamamatsu, Japan) to measure the calcium flux.
The triple add protocol was used to measure Ca kinetics; Compound, ACh for EC2O, and ACh for EC80 adds in an order. Briefly, after establishment of a fluorescence baseline for 2 seconds (excitation, 480 nm; emission, 530 nm), first add occurred by adding 20 μL of test compound to the cells, and the response was measured for 140 seconds. This is followed by second add; 10 μL (5×) of an EC20 concentration of ACh agonist was added to the cells, and the response of the cells was measured for 125 seconds. […]
For orientation: Calcium flux is commonly read through the fluorescence of an indicator in the cells.

Bounds are passed on as bounds.

Take `Cc1cc2nccnc2nc1N1CCc2nc(C(C)C)sc2C1` [Compound 64, 2-isopropyl-5-(7-methylpyrido[2,3-b]pyrazin-6-yl)-4,5,6,7-tetrahydrothiazolo[5,4-c]pyridine]: the Emax (as a rule, the size of the effect at its maximum, as opposed to the concentration needed) at 30 µM turned out to be 76% and the EC50 (as a rule, the concentration at which the effect is half-maximal) was 119 nM.

Take `Cc1c(C#N)nnc(N2CCc3nc(C4CC4)sc3C2)c1C` [Compound 12, 6-(2-cyclopropyl-6,7-dihydrothiazolo[5,4-c]pyridin-5(4H)-yl)-4,5-dimethylpyridazine-3-carbonitrile]: the Emax at 30 µM worked out at 76% and the EC50 is 161 nM.

With `Cc1cc2nccnc2nc1N1CCc2nc(C3CC3)sc2C1` [Compound 54, 2-cyclopropyl-5-(7-methylpyrido[2,3-b]pyrazin-6-yl)-4,5,6,7-tetrahydrothiazolo[5,4-c]pyridine], the Emax at 30 µM was determined as 82% and the EC50 was found to be 32 nM.

With `Cc1cc2nccnc2nc1N1CCc2nc(C(C)(C)C)sc2C1` [Compound 65, 2-(tert-butyl)-5-(7-methylpyrido[2,3-b]pyrazin-6-yl)-4,5,6,7-tetrahydrothiazolo[5,4-c]pyridine], the Emax at 30 µM turned out to be 57% and the EC50 turned out to be 1890 nM.

Turning to `Cc1c(C#N)nnc(N2CCc3nc(Nc4ccccc4F)sc3C2)c1C` [Compound 5, 6-(2-((2-fluorophenyl)amino)-6,7-dihydrothiazolo[5,4-c]pyridin-5(4H)-yl)-4,5-dimethylpyridazine-3-carbonitrile], the Emax at 30 µM stood at 43% and the EC50 was over 10000 nM.

`Clc1ccc2ncnc(N3CCc4nc(Br)sc4C3)c2c1` [Compound 29, 2-bromo-5-(6-chloroquinazolin-4-yl)-4,5,6,7-tetrahydrothiazolo[5,4-c]pyridine]: the Emax at 30 µM worked out at 96% and the EC50 was 144 nM.

For the compound `Cc1cc2nccc(=O)n2nc1N1CCc2nc(Br)sc2C1` [Compound 34, 7-(2-bromo-6,7-dihydrothiazolo[5,4-c]pyridin-5(4H)-yl)-8-methyl-4H-pyrimido[1,2-b]pyridazin-4-one], the Emax at 30 µM was 70% and the EC50 was found to be 6070 nM.

Take `Fc1ccc2ncnc(N3CCc4nc(Br)sc4C3)c2c1` [Compound 28, 2-bromo-5-(6-fluoroquinazolin-4-yl)-4,5,6,7-tetrahydrothiazolo[5,4-c]pyridine]: the Emax at 30 µM stood at 101% and the EC50 was found to be 45 nM.

Regarding `Cc1nc(N2CCc3nc(Br)sc3C2)c2cc(Cl)ccc2n1` [Compound 32, 2-bromo-5-(6-chloro-2-methylquinazolin-4-yl)-4,5,6,7-tetrahydrothiazolo[5,4-c]pyridine], the Emax at 30 µM was found to be 91% and the EC50 worked out at 200 nM.

Take `Cc1c(N2CCc3nc(C4CC4)sc3C2)nc2nn(CC3CC(F)(F)C3)c(=O)n2c1C` [Compound 76, 7-(2-cyclopropyl-6,7-dihydrothiazolo[5,4-c]pyridin-5(4H)-yl)-2-((3,3-difluorocyclobutyl)methyl)-5,6-dimethyl-[1,2,4]triazolo[4,3-a]pyrimidin-3(2H)-one]: the Emax at 30 µM was found to be 105% and the EC50 is 87 nM.

`Cc1cc2nccnc2nc1N1CCc2nc(N)sc2C1` [Compound 60, 5-(7-methylpyrido[2,3-b]pyrazin-6-yl)-4,5,6,7-tetrahydrothiazolo[5,4-c]pyridin-2-amine]: the Emax at 30 µM was 67% and the EC50 is over 10000 nM.

As for `Cc1cc(-c2nc3c(s2)CN(c2ncc(C#N)cc2C)CC3)ccn1` [Compound 2, 5-methyl-6-(2-(2-methylpyridin-4-yl)-6,7-dihydrothiazolo[5,4-c]pyridin-5(4H)-yl)nicotinonitrile], the Emax at 30 µM is 59% and the EC50 turned out to be 612 nM.

As to `Cc1cc(C#N)cnc1N1CCc2nc(-c3cncs3)sc2C1` [Compound 3, 5-methyl-6-(2-(thiazol-5-yl)-6,7-dihydrothiazolo[5,4-c]pyridin-5(4H)-yl)nicotinonitrile], the Emax at 30 µM came to 45% and the EC50 was over 10000 nM.

On to `Cc1c(C#N)nnc(N2CCc3nc(Nc4ccc(F)cc4)sc3C2)c1C` [Compound 7, 6-(2-((4-fluorophenyl)amino)-6,7-dihydrothiazolo[5,4-c]pyridin-5(4H)-yl)-4,5-dimethylpyridazine-3-carbonitrile], for which the Emax at 30 µM turned out to be 49% and the EC50 is 1290 nM.

As for `Cc1cc2nc(=O)cc(C(F)(F)F)n2nc1N1CCc2nc(Br)sc2C1` [Compound 49, 7-(2-bromo-6,7-dihydrothiazolo[5,4-c]pyridin-5(4H)-yl)-8-methyl-4-(trifluoromethyl)-2H-pyrimido[1,2-b]pyridazin-2-one], the Emax at 30 µM turned out to be 76% and the EC50 came to 386 nM.

Turning to `Cc1cc(C#N)cnc1N1CCc2nc(C(N)=O)sc2C1` [Compound 21, 5-(5-cyano-3-methylpyridin-2-yl)-4,5,6,7-tetrahydrothiazolo[5,4-c]pyridine-2-carboxamide], the Emax at 30 µM is 98% and the EC50 amounted to 301 nM.

Regarding `Cc1cn2c(=O)[nH]nc2nc1N1CCc2nc(C3CCC3)sc2C1` [Compound 66, 7-(2-cyclobutyl-6,7-dihydrothiazolo[5,4-c]pyridin-5(4H)-yl)-6-methyl-[1,2,4]triazolo[4,3-a]pyrimidin-3(2H)-one], the maximal effect (Emax) at 30 µM was 76% and the EC50 is 13 nM.

Take `Cc1cc2nccnc2nc1N1CCc2nc(C3(C)CC3)sc2C1` [Compound 55, 2-(1-methylcyclopropyl)-5-(7-methylpyrido[2,3-b]pyrazin-6-yl)-4,5,6,7-tetrahydrothiazolo[5,4-c]pyridine]: the Emax at 30 µM was 76% and the EC50 was 253 nM.

Take `Cc1nc(Cl)c(C)c(N2CCc3nc(C)sc3C2)n1` [Compound 9, 5-(6-chloro-2,5-dimethylpyrimidin-4-yl)-2-methyl-4,5,6,7-tetrahydrothiazolo[5,4-c]pyridine]: the Emax at 30 µM is 98% and the EC50 stood at 660 nM.

As to `Cc1cc(C#N)cnc1N1CCc2nc(-c3cnn(C4CCC4)c3)sc2C1` [Compound 4, 6-(2-(1-cyclobutyl-1H-pyrazol-4-yl)-6,7-dihydrothiazolo[5,4-c]pyridin-5(4H)-yl)-5-methylnicotinonitrile], the Emax at 30 µM is 54% and the EC50 is over 10000 nM.

Regarding `Cc1coc2ncnc(N3CCc4nc(Br)sc4C3)c12` [Compound 22, 4-(2-bromo-6,7-dihydrothiazolo[5,4-c]pyridin-5(4H)-yl)-5-methylfuro[2,3-d]pyrimidine], the Emax at 30 µM was determined as 96% and the EC50 is 106 nM.

On to `Cc1cc2nc(C(=O)N3CC(C)C3)cc(=O)n2nc1N1CCc2nc(Br)sc2C1` [Compound 43, 7-(2-bromo-6,7-dihydrothiazolo[5,4-c]pyridin-5(4H)-yl)-8-methyl-2-(3-methylazetidine-1-carbonyl)-4H-pyrimido[1,2-b]pyridazin-4-one], for which the Emax at 30 µM came out at 87% and the EC50 is 1960 nM.
